This note sets out measurements from patent US8409836B2, “Treatment of cellulosic material and enzymes useful therein” (Roal Oy, priority 2005, dated 2013).

What all share (assay): Cellobiose inhibition constant, CNPLac as substrate
What all share (type): biochemical

For test [1], the target named is Trichoderma reesei cellobiohydrolase I Tr Cel7A (Tr CBHI/Cel7A) (Trichoderma reesei, UniProt A0A024RXP8). How it is done: (§1) The Michaelis-Menten and cellobiose inhibition constants were determined from the cellobiohydrolases produced heterologously in T. reesei (Examples 14 and 15). The enzymes were purified as described in Example 2. Protein concentrations of purified enzymes were measured by their absorption at 280 nm using a theoretical molar extinction co-efficient, which were calculated from the amino acid sequences (Gill and von Hippel, 1989).
Trichoderma reesei cellobiohydrolase I Tr Cel7A (Tr CBHI/Cel7A), sequence (A0A024RXP8 18-514): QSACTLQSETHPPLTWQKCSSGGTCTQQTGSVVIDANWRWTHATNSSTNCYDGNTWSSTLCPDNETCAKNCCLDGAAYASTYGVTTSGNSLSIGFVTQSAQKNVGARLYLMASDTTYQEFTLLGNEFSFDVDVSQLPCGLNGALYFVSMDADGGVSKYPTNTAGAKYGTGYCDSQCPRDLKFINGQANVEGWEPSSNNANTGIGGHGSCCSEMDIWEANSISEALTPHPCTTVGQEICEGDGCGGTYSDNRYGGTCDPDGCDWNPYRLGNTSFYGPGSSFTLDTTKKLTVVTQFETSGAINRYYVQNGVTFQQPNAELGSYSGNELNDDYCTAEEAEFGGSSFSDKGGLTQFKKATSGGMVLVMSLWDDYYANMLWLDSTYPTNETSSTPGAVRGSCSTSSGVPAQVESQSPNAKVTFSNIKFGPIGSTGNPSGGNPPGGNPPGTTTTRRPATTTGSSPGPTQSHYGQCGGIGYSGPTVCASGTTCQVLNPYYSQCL
(§2) Kinetic constants (Km and kcat values) and cellobiose inhibition constant (Ki) for Tr CBHI/Cel7A, Ta CBH/Cel7A, At CBH/Cel7A and Ct CBH/Cel7A, were measured using CNPLac (2-Chloro-4-nitrophenyl-β-D-lactoside) as substrate at ambient temperature (22° C.) in 50 mM sodium phosphate buffer, pH 5.7. For the determination of the inhibition constant (Ki), eight different substrate concentrations (31-4000 μM) in the presence of a range of five inhibitor concentrations (0-100 μM or 0-400 μM), which bracket the Ki value, were used. All experiments were performed in microtiter plates and the total reaction volume was 200 μl. The initial rates were in each case measured by continuous monitoring the release of the chloro-nitrophenolate anion (CNP, 2-Chloro-4-nitrophenolate) through measurements at 405 nm using Varioscan (Thermolabsystems) microtiter plate reader. The results were calculated from CNP standard curve (from 0 to 100 μM). Enzyme concentrations used were: Tr CBHI/Cel7A 2.46 μM, Ta CBH/Cel7A 1.58 μM, Ct CBH/Cel7A 0.79 μM and At CBH/Cel7A 3 μM. The Km and kcat constants were calculated from the fitting of the Michaelis-Menten equation using the programme of Origin. Lineweaver-Burk plots, replots (LWB slope versus [Glc2; cellobiose]) and Hanes plots were used to distinguish between competitive and mixed type inhibition and to determine the inhibition constants (Ki).

Test [2] concerns the target T1, Thermoascus aurantiacus ALKO4242 cellobiohydrolase Ta Cel7A (Ta CBH/Cel7A), recombinant, SEQ ID NO: 2 (Thermoascus aurantiacus, UniProt A7WNU2).
T1 sequence (A7WNU2 18-457): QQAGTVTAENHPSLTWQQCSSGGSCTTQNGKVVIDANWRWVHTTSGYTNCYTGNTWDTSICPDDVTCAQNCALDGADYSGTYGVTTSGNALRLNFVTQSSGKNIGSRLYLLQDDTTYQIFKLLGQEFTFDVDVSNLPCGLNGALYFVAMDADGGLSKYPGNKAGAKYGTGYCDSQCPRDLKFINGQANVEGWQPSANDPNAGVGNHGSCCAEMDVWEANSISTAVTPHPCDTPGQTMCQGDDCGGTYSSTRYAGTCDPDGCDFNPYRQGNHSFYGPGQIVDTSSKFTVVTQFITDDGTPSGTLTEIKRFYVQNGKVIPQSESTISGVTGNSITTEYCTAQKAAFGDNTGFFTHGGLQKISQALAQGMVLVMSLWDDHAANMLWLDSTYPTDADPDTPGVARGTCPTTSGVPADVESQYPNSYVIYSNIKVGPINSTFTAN
How it is done: as §1, §2

Test [3] has as its target T2, Chaetomium thermophilum ALKO4265 cellobiohydrolase Ct Cel7A (Ct CBH/Cel7A), recombinant, SEQ ID NO: 8 (Thermochaetoides thermophila, UniProt A7WNU1).
T2 sequence (A7WNU1 19-532): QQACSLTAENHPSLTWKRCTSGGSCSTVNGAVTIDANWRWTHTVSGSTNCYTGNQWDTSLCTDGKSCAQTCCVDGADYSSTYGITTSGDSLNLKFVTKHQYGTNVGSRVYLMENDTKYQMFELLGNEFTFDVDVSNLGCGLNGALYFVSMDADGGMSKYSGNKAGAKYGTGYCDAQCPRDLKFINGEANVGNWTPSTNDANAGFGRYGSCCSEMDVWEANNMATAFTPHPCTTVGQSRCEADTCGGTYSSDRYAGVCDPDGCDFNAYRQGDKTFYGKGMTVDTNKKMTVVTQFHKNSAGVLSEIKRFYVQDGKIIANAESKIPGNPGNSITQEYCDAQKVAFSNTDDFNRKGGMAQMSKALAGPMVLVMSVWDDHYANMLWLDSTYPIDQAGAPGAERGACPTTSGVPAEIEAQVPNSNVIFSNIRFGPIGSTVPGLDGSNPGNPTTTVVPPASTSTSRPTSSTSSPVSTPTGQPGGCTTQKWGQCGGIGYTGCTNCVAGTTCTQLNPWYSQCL
How it is done:
as §1, §2

Test [4] addresses T3, Acremonium thermophilum ALKO4245 cellobiohydrolase At Cel7A (At CBH/Cel7A), recombinant, SEQ ID NO: 6 (Phialemonium thermophilum, UniProt A7WNT9).
T3 sequence (A7WNT9 18-523): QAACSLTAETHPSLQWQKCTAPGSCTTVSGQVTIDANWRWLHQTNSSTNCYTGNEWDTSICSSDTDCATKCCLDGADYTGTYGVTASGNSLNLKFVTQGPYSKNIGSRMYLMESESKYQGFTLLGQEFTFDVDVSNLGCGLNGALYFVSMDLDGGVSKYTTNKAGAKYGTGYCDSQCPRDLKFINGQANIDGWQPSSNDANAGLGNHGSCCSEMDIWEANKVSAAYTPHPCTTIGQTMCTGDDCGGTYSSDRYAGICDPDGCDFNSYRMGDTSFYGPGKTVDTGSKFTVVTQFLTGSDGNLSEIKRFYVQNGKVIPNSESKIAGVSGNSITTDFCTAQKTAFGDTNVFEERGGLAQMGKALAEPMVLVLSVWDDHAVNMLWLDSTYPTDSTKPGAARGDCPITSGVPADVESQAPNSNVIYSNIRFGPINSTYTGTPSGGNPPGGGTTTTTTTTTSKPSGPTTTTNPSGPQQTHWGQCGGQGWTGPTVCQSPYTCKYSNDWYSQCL
How it is done:
as §1, §2

The term Ki denotes a measure of affinity in units of concentration, obtained from inhibition or displacement. Regarding `OC[C@H]1O[C@@H](O[C@H]2[C@H](O)[C@@H](O)C(O)O[C@@H]2CO)[C@H](O)[C@@H](O)[C@@H]1O` (stereo partly drawn) [cellobiose], the inhibition constant Ki in test [1] is 19 µM; in test [2], 107 µM; in test [3], 39 µM; in test [4], 141 µM. The Type of inhibition entry in test [1] (Tr Cel7A (control), CNPLac substrate, 50 mM sodium phosphate pH 5.7, 22° C.) is on record as “competitive”; in test [2] (Ta Cel7A, CNPLac substrate, 50 mM sodium phosphate pH 5.7, 22° C.), “competitive”; in test [3] (Ct Cel7A, CNPLac substrate, 50 mM sodium phosphate pH 5.7, 22° C.), “competitive”; in test [4] (At Cel7A, CNPLac substrate, 50 mM sodium phosphate pH 5.7, 22° C.) it was “competitive”. Moreover, the “higher inhibition constant as compared to that of Tr CBHI/Cel7A” value in test [4] (At CBH/Cel7A vs Tr CBHI/Cel7A, cellobiose) is “over 7 fold”.
